Assay results from publication PMC7139804 (2020).

Tests used:
[1] = tested on: CPG-ds27 (DNA, hairpin) CGCGAATTCGCGTTTCGCGAATTCGCG; assay: G4-CPG affinity chromatography; settings: 50 mM KCl; washing solution with 10% DMSO, 10% ethanol; oligonucleotide on CPG; errors within ± 2%
[2] = tested on: CPG-tel26 (DNA, G4) TTAGGGTTAGGGTTAGGGTTAGGGTT; assay: G4-CPG affinity chromatography; settings: 50 mM KCl; washing solution with 10% DMSO, 10% ethanol; oligonucleotide on CPG; errors within ± 2%
[3] = tested on: CPG-cmyc (DNA, G4) TGGGGAGGGTGGGGAGGGTGGGGAAGGTGGGGA; assay: G4-CPG affinity chromatography; settings: 50 mM KCl; washing solution with 10% DMSO, 10% ethanol; oligonucleotide on CPG; errors within ± 2%
[4] = tested on: cmyc (DNA, G4) TGGGGAGGGTGGGGAGGGTGGGGAAGGTGGGGA; assay: fluorescence titration, independent equivalent-sites fit; settings: 20 mM KCl, 5 mM KH2PO4, 10% DMSO, pH 7, 20 °C, 2 µM ligand
[5] = tested on: ds27 (DNA, hairpin) CGCGAATTCGCGTTTCGCGAATTCGCG; assay: as above; settings: 20 mM KCl, 5 mM KH2PO4, 10% DMSO, pH 7, 20 °C, 2 µM ligand
[6] = tested on: tel26 (DNA, G4) TTAGGGTTAGGGTTAGGGTTAGGGTT; assay: as above; settings: 20 mM KCl, 5 mM KH2PO4, 10% DMSO, pH 7, 20 °C, 2 µM ligand
[7] = tested on: tel26 (DNA, G4) TTAGGGTTAGGGTTAGGGTTAGGGTT; assay: CD melting at 290 nm; settings: 20 mM KCl, 5 mM KH2PO4; 10% DMSO, pH 7; 2 µM DNA, 12 µM compound (1:6)
[8] = tested on: tel26 (DNA, G4) TTAGGGTTAGGGTTAGGGTTAGGGTT; assay: fluorescence titration and Job plot; settings: 20 mM KCl, 5 mM KH2PO4; 10% DMSO, pH 7, 20 °C; 2 µM ligand, DNA up to 10 µM; no tight binding
[9] = tested on: cmyc (DNA, G4) TGGGGAGGGTGGGGAGGGTGGGGAAGGTGGGGA; assay: fluorescence titration and Job plot; settings: 20 mM KCl, 5 mM KH2PO4; 10% DMSO, pH 7, 20 °C; 2 µM ligand, DNA up to 10 µM; no tight binding
[10] = tested on: ds27 (DNA, hairpin) CGCGAATTCGCGTTTCGCGAATTCGCG; assay: fluorescence titration and Job plot; settings: 20 mM KCl, 5 mM KH2PO4; 10% DMSO, pH 7, 20 °C; 2 µM ligand, DNA up to 10 µM; no tight binding

Compound | Bound Ligand (%) [1] | Bound Ligand (%) [2] | Bound Ligand (%) [3] | other results
CCCNc1cc2c3c(c(NCCCN(C)C)cc4c3c1C(=O)N(CCCN(C)C)C4=O)C(=O)N(CCCN(C)C)C2=O | 46% | 92% |  | 
CCCNc1cc2c3c(ccc4c3c1C(=O)N(CCCN(C)C)C4=O)C(=O)N(CCCN(C)C)C2=O | 50% | 85% | 95% | 
CN(C)CCCN1C(=O)c2cc(NCCCCCCCNc3cc4c5c(ccc6c5c3C(=O)N(CCCCCC(=O)O)C6=O)C(=O)N(CCCCCC(=O)O)C4=O)c3c4c(cc(Br)c(c24)C1=O)C(=O)N(CCCN(C)C)C3=O | 71% | 75% | 79% | 
CN(C)CCCN1C(=O)c2cc(NCCOCCOCCNc3cc4c5c(c(Br)cc6c5c3C(=O)N(CCCCCC(=O)O)C6=O)C(=O)N(CCCCCC(=O)O)C4=O)c3c4c(cc(Br)c(c24)C1=O)C(=O)N(CCCN(C)C)C3=O | 38% | 73% |  | 
CN(C)CCCN1C(=O)c2cc(NCCOCCOCCNc3cc4c5c(ccc6c5c3C(=O)N(CCCCCC(=O)O)C6=O)C(=O)N(CCCCCC(=O)O)C4=O)c3c4c(cc(Br)c(c24)C1=O)C(=O)N(CCCN(C)C)C3=O | 29% | 67% | 64% | 
CN(C)CCCN1C(=O)c2ccc3c4c(c(NCCCCCCCN)cc(c24)C1=O)C(=O)N(CCCN(C)C)C3=O | 48% | 100% | 97% | 
CN(C)CCCN1C(=O)c2ccc3c4c(c(NCCCCCCCNc5cc6c7c(ccc8c7c5C(=O)N(CCCCCC(=O)O)C8=O)C(=O)N(CCCCCC(=O)O)C6=O)cc(c24)C1=O)C(=O)N(CCCN(C)C)C3=O | 61% | 77% |  | 
CN(C)CCCN1C(=O)c2ccc3c4c(c(NCCOCCO)cc(c24)C1=O)C(=O)N(CCCN(C)C)C3=O | 30% | 99% | 99% | Kb [4]: 2.6 (±0.2) × 10^7 M^−1; Kb [5]: 1.9 (±0.2) × 10^7 M^−1; Kb [6]: 2.4 (±0.1) × 10^7 M^−1; ΔTm [7]: +15 °C
CN(C)CCCN1C(=O)c2ccc3c4c(c(NCCOCCOCCN)cc(c24)C1=O)C(=O)N(CCCN(C)C)C3=O | 41% | 97% |  | 
CN(C)CCCN1C(=O)c2ccc3c4c(c(NCCOCCOCCNc5cc6c7c(c(Br)cc8c7c5C(=O)N(CCCCCC(=O)O)C8=O)C(=O)N(CCCCCC(=O)O)C6=O)cc(c24)C1=O)C(=O)N(CCCN(C)C)C3=O | 33% | 68% | 79% | binding [8]: weak; binding [9]: weak; binding [10]: weak
CN(C)CCCN1C(=O)c2ccc3c4c(c(NCCOCCOCCNc5cc6c7c(ccc8c7c5C(=O)N(CCCCCC(=O)O)C8=O)C(=O)N(CCCCCC(=O)O)C6=O)cc(c24)C1=O)C(=O)N(CCCN(C)C)C3=O | 34% | 85% | 79% | 
CN(C)CCCNc1cc2c3c(c(NCCOCCOCCNc4cc5c6c(ccc7c6c4C(=O)N(CCCCCC(=O)O)C7=O)C(=O)N(CCCCCC(=O)O)C5=O)cc4c3c1C(=O)N(CCCN(C)C)C4=O)C(=O)N(CCCN(C)C)C2=O | 71% | 90% | 87% | 
